Laboratory results from ChEMBL document CHEMBL5096210, “Discovery of Betulinic Acid Derivatives as Potent Intestinal Farnesoid X Receptor Antagonists to Ameliorate Nonalcoholic Steatohepatitis” (J Med Chem, 2022).
The source made the active and inactive calls. No cut-off for these calls is given here.

Tests used:
[1] = target: T1, Bile acid receptor (Mus musculus) (UniProt Q60641); experiment: In vivo antagonist activity against FXR in mouse assessed as stimulation of organoids growth in presence of FXR agonist; format: functional
T1 sequence (whole entry): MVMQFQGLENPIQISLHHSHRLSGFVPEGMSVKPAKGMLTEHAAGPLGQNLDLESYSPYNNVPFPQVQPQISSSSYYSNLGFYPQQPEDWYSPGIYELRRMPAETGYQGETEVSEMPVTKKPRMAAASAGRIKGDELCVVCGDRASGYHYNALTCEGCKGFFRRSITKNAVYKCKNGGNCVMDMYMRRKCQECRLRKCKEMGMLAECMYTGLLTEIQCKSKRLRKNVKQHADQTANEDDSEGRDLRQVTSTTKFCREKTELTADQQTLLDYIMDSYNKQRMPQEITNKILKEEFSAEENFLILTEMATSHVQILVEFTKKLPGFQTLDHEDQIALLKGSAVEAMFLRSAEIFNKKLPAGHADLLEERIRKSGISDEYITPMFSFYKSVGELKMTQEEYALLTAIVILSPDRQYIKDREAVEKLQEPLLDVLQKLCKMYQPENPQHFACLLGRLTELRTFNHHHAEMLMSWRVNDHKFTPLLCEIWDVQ

[2] = target: T1, Bile acid receptor (Mus musculus); experiment: In vivo antagonist activity against FXR in mouse assessed as reduction in Fxr level in presence of CDCA; format: functional
[3] = target: T1, Bile acid receptor (Mus musculus); experiment: In vivo antagonist activity against FXR in microbeta depleted mouse assessed as reduction in taurocholic acid induced Shp mRNA expression in ileum at 10 mg/kg, po incubated for 2 to 48 hrs; format: functional, organism-based; conditions: time 2-48 hrs
[4] = target: T1, Bile acid receptor (Mus musculus); experiment: In vivo antagonist activity against FXR in microbeta depleted mouse assessed as reduction in taurocholic acid induced Fgf15 mRNA expression in ileum at 10 mg/kg, po incubated for 2 to 48 hrs; format: functional, organism-based; conditions: time 2-48 hrs
[5] = target: T1, Bile acid receptor (Mus musculus); experiment: In vivo antagonist activity against FXR in microbeta depleted mouse assessed as reduction in taurocholic acid induced FXR mRNA expression in hepatic signaling at 10 mg/kg, po incubated for 2 to 48 hrs; format: functional, organism-based; conditions: time 2-48 hrs
[6] = target: T1, Bile acid receptor (Mus musculus); experiment: In vivo antagonist activity against FXR in mouse assessed as reduction in Tgr5 expression in small intestine organoids; format: functional
[7] = Drug metabolism in C57BL6 mouse liver assessed as ((1S,3aS,5aR,5bR,7aR,9R,11aR,11bR,13aR,13bR)-9-hydroxy-1-isopropyl-5a,5b,8,8,11a-pentamethylicosahydro-1H-cyclopenta[a]chrysene-3a-carbonyl)glycine formation at 10 mg/kg, po administered as single dose measured after 2 hrs; format: ADME, organism-based; conditions: in vivo
[8] = Drug metabolism in C57BL6 mouse Gall bladder assessed as ((1S,3aS,5aR,5bR,7aR,9R,11aR,11bR,13aR,13bR)-9-hydroxy-1-isopropyl-5a,5b,8,8,11a-pentamethylicosahydro-1H-cyclopenta[a]chrysene-3a-carbonyl)glycine formation at 10 mg/kg, po administered as single dose measured after 2 hrs; format: ADME, organism-based; conditions: in vivo
Mus musculus [9] = experiment: Anti-NASH activity in GAN-induced […] mouse assessed as reduction in fat/lean index at 10 mg/kg, IG measured after 12 weeks; format: functional, organism-based
Mus musculus [10] = experiment: Anti-NASH activity in GAN-induced […] mouse assessed as reduction in random blood glucose level at 10 mg/kg measured upto 120 mins; format: functional, organism-based
Mus musculus [11] = experiment: Anti-NASH activity in GAN-induced mouse assessed as increase in glucose tolerance at 10 mg/kg; format: functional, organism-based
Mus musculus [12] = experiment: Anti-NASH activity in GAN-induced […] mouse assessed as upregulation of Ucp1 expression in inguinal white adipose tissue at 10 mg/kg; format: functional, organism-based
Mus musculus [13] = organism: Mus musculus; experiment: Anti-NASH activity in GAN diet-induced […] mouse assessed as reduction in hepatic cholesterol level; format: functional, organism-based
Mus musculus [14] = organism: Mus musculus; experiment: Anti-NASH activity in GAN diet-induced […] mouse assessed as reduction in ALT level; format: functional, organism-based
Liver [15] = experiment: Anti-NASH activity in GAN diet-induced […] mouse liver assessed as reduction in hepatocyte collagen deposition by H and E staining based analysis; format: functional, cell-based
Liver [16] = experiment: Anti-NASH activity in GAN diet-induced […] mouse liver assessed as reduction in macrosteatosis by Oil Red O staining based assay; format: functional
Liver [17] = experiment: Anti-NASH activity in GAN diet-induced […] mouse liver assessed as reduction in hepatocyte fat by Oil Red O staining based assay; format: functional, cell-based
Liver [18] = experiment: Anti-NASH activity in GAN diet-induced […] mouse liver assessed as reduction in macrosteatosis by Sirius red staining based analysis; format: functional
Mus musculus [19] = organism: Mus musculus; experiment: Anti-NASH activity in GAN diet-induced […] mouse assessed as reduction in Cd36 mRNA expression level; format: functional, organism-based
Mus musculus [20] = organism: Mus musculus; experiment: Anti-NASH activity in GAN diet-induced […] mouse assessed as reduction in Fabp3 mRNA expression level; format: functional, organism-based
Mus musculus [21] = organism: Mus musculus; experiment: Anti-NASH activity in GAN diet-induced […] mouse assessed as reduction in mature Il1beta; format: functional, organism-based
Mus musculus [22] = organism: Mus musculus; experiment: Anti-NASH activity in GAN diet-induced […] mouse assessed as reduction in A-sma mRNA expression; format: functional, organism-based
Mus musculus [23] = organism: Mus musculus; experiment: Anti-NASH activity in GAN diet-induced […] mouse assessed as upregulation of Cyp7a1 mRNA expression in liver; format: functional, organism-based
Mus musculus [24] = organism: Mus musculus; experiment: Anti-NASH activity in GAN diet-induced […] mouse assessed as decrease in cholesterol in liver; format: functional, organism-based
Mus musculus [25] = organism: Mus musculus; experiment: Anti-NASH activity in GAN diet-induced […] mouse assessed as increase in Bsep mRNA level; format: functional, organism-based
Mus musculus [26] = organism: Mus musculus; experiment: Anti-NASH activity in GAN diet-induced […] mouse assessed as increase in hepatic bile acid synthesis; format: functional, organism-based
Mus musculus [27] = organism: Mus musculus; experiment: Anti-NASH activity in GAN diet-induced […] mouse assessed as bile acid level in gall bladder; format: functional, organism-based

## CCCC(=O)O[C@@H]1CC[C@]2(C)[C@H]3CC[C@@H]4[C@H]5[C@H](C(C)C)CC[C@]5(C(=O)NCC(=O)O)CC[C@@]4(C)[C@]3(C)CC[C@H]2C1(C)C
[1]
  Activity: Active
[2]
  Activity: Active
[3]
  Activity: Active
[4]
  Activity: Active
[5]
  Activity: Active
[6]
  Activity: Active
[7]
  Drug metabolism: Metabolite_Detected
[8]
  Drug metabolism: Metabolite_Detected
Mus musculus [9]
  Activity: Active
Mus musculus [10]
  Activity: Active
Mus musculus [11]
  Activity: Active
Mus musculus [12]
  Activity: Active
Mus musculus [13]
  Activity: Active
Mus musculus [14]
  Activity: Active
Liver [15]
  Activity: Active
Liver [16]
  Activity: Active
Liver [17]
  Activity: Active
Liver [18]
  Activity: Active
Mus musculus [19]
  Activity: Active
Mus musculus [20]
  Activity: Active
Mus musculus [21]
  Activity: Active
Mus musculus [22]
  Activity: Active
Mus musculus [23]
  Activity: Active
Mus musculus [24]
  Activity: Active
Mus musculus [25]
  Activity: Active
Mus musculus [26]
  Activity: Active
Mus musculus [27]
  Activity: Active
